Here are results for seven substances from patent US20060093596A1, “Genomic approach to identification of novel broad-spectrum antimicrobial peptides from bony fish” (priority 2002, published 2006).

For test [1], the system named is Salmonella enterica s. Typhimurium MS4252S (C610, supersusceptible strain). Format: cell-based. The conditions noted are these: lowest peptide concentration inhibiting growth by at least 50%; Mueller-Hinton broth.
Experimental: (§2) Most non-fish bacterial strains as well as Candida albicans were grown at 37° C. in Mueller-Hinton Broth (MHB; Difco Laboratories, Detroit), while the fish bacteria were maintained at 16° C. in Tryptic Soy Broth (TSB; Difco, 5g/l NaCl). All strains were stored at −70° C. until they were thawed for use and sub-cultured daily. The following strains, Pseudomonas aeruginosa K799 (parent of Z61), Pseudomonas aeruginosa Z61 (antibiotic supersusceptible), Salmonella typhimurium 14028s (parent of MS7953s), Salmonella typhimurium MS7953s (defensin supersusceptible), as well as Staphylococcus epidermidis (human clinical isolates) and methicillin-resistant Staphylococcus aureus (MRSA; isolated by Dr. A. Chow, University of British Columbia) have been kindly donated by Prof R. E. W. Hancock, University of British Columbia.
(§3) The activities of the antimicrobial peptides were determined as minimal inhibitory concentrations (MICs) using the microtitre broth dilution method of Amsterdam (Amsterdam, 1996), as modified by Wu and Hancock (1999). Serial dilutions of the peptide were made in water in 96-well polypropylene (Costar, Coming Incorporated, Coming, New York) microtiter plates. Bacteria or C. albicans were grown overnight to mid-logarithmic phase as described above, and diluted to give a final inoculum size of 10^6 cfu/ml. A suspension of bacteria or yeast was added to each well of a 96 well plate and incubated overnight at the appropriate temperature. […] Three repeats of each MIC determination were performed.
The test system of test [2] is Salmonella enterica s. Typhimurium 14028S (C587). Format: cell-based. The conditions noted are these: lowest peptide concentration inhibiting growth by at least 50%; Mueller-Hinton broth.
Experimental: as §2, §3
Test [3] has as its system Pseudomonas aeruginosa K799 (H187). The test is classed as cell-based. As to conditions: lowest peptide concentration inhibiting growth by at least 50%; Mueller-Hinton broth.
Experimental: as §2, §3
For test [4], the system named is Pseudomonas aeruginosa Z61 (H188, supersusceptible strain). Format: cell-based. The conditions noted are these: lowest peptide concentration inhibiting growth by at least 50%; Mueller-Hinton broth.
Experimental: as §2, §3
For test [5], the system named is Escherichia coli C786, CGSC4908. Format: cell-based. As to conditions: lowest peptide concentration inhibiting growth by at least 50%; supplemented Mueller-Hinton broth.
Experimental: All strains were stored at −70° C. until they were thawed for use and sub-cultured daily.
Escherichia coli strain CGSC 4908 (his-67, thyA43, pyr-37), auxotrophic for thymidine, uridine, and L-histidine (Cohen et al., 1963) was kindly supplied, free of charge, by the E.coli Genetic Stock Centre (Yale University, New Haven, Conn.). MHB supplemented with 5 mg/L thymidine, 10 mg/L uridine and 20 mg/L L-histidine (Sigma Chemical Co., St. Louis, Mo.), was used to grow E.coli CGSC 4908 unless otherwise specified.
The activities of the antimicrobial peptides were determined as minimal inhibitory concentrations (MICs) using the microtitre broth dilution method of Amsterdam (Amsterdam, 1996), as modified by Wu and Hancock (1999). Serial dilutions of the peptide were made in water in 96-well polypropylene (Costar, Coming Incorporated, Coming, New York) microtiter plates. Bacteria or C. albicans were grown overnight to mid-logarithmic phase as described above, and diluted to give a final inoculum size of 10^6 cfu/ml. A suspension of bacteria or yeast was added to each well of a 96 well plate and incubated overnight at the appropriate temperature. In the case of E. coli CGSC 4908, supplemented MHB was used. […] Three repeats of each MIC determination were performed.
In test [6] the test system is Escherichia coli UB1005 (C498). Format: cell-based. As to conditions: lowest peptide concentration inhibiting growth by at least 50%; Mueller-Hinton broth.
Experimental: as §2, §3
Test [7] has as its system Escherichia coli DC2 (C500, outer membrane-permeable mutant). The test is classed as cell-based. As to conditions: lowest peptide concentration inhibiting growth by at least 50%; Mueller-Hinton broth.
Experimental: as §2, §3
For test [8], the system named is bacterial pathogens and C. albicans. The test is described as follows: Spectrum of antimicrobial activity (MIC panel, overall). Format: cell-based. As to conditions: summary of MIC results against bacteria and C. albicans. The protocol:
Three repeats of each MIC determination were performed.
The minimal inhibitory concentrations of the chemically produced peptides against a wide range of baterial pathogens and C. albicans were determined and are shown in Table 9.

In test [9] the test system is Aeromonas salmonicida 99-1, A449.
Experimental: (§4) Most non-fish bacterial strains as well as Candida albicans were grown at 37° C. in Mueller-Hinton Broth (MHB; Difco Laboratories, Detroit), while the fish bacteria were maintained at 16° C. in Tryptic Soy Broth (TSB; Difco, 5g/l NaCl).
(§5) Two field isolates of the salmonid pathogen Aeromonas salmonicida are from the IMB strain collection.
as §3
The test system of test [10] is Aeromonas salmonicida 97-4.
Experimental: as §4, §5, §3
The test system of test [11] is Staphylococcus epidermidis C621 (clinical isolate).
Experimental: as §2, §3
For test [12], the system named is methicillin-resistant Staphylococcus aureus (MRSA) C623, SAP017. The conditions noted are these: for Minimal inhibitory concentration, MRSA C623: methicillin-resistant C623, SAP017.
Experimental: as §2, §3
Test [13] concerns Candida albicans C627, CALB105. The conditions noted are these: C627, CALB105.
Experimental: as §2, §3
The subject of test [14] is methicillin-resistant Staphylococcus aureus (MRSA). The test is described as follows: Killing assay (survival at MIC and ten times MIC). The test is classed as cell-based. The conditions noted are these: Mueller-Hinton broth, FIG. 13. The protocol: (§1) Survival of bacteria and C. albicans upon exposure to selected peptides applied at their minimal inhibitory concentrations (MICs) and ten times their MICs was measured using standard methodology. The test organisms were grown in MHB and exposed to the peptides. At the specified time intervals equal aliquots were removed from the cultures, plated on MHB plates, and the resulting colonies were counted. Percentage survival was plotted against time on a logarithmic scale. Two repeats of each experiment were performed.
FIG. 13 describes Survival of a Gram-positive bacterium (methicillin-resistant Staphylococcus aureus—MRSA) upon exposure to NRC-15 at its minimal inhibitory concentration (MIC) and ten times its MIC. S. aureus was grown in Mueller-Hinton broth and exposed to NRC-15 at its MIC and ten times its MIC. At the specified intervals equal aliquots were removed from the culture, plated on MHB plates, and the resulting colonies were counted.

For test [15], the system named is Candida albicans. Description: Killing assay (survival at MIC and ten times MIC). The test is classed as cell-based. The conditions noted are these: Mueller-Hinton broth, FIG. 15. The protocol:
as §1
FIG. 15 describes Survival of a yeast (Candida albicans) upon exposure to NRC-12 at its minimal inhibitory concentration (MIC) and ten times its MIC. C. albicans was grown in Mueller-Hinton broth and exposed to NRC-12 at its MIC and ten times its MIC. At the specified intervals equal aliquots were removed from the culture, plated on MHB plates, and the resulting colonies were counted.

Where no end group is shown, it is not given here. A value given as a limit tells only on which side of the number the result lay.

Take FFRLLFHGVHHVGKIKPRA-NH2 [NRC-10]: the “Minimal inhibitory concentration, S. typh MS4252s” value in test [1] is 16 µg/mL. Moreover, the “Minimal inhibitory concentration, S. typh 14028s” value in [2] was greater than 64 µg/mL. Also, in test [3], the “Minimal inhibitory concentration, P. aeru K799” value worked out at 32 µg/mL. For the same substance, in [4], the “Minimal inhibitory concentration, P. aeru Z61” value is 8 µg/mL. Also, in test [5], the “Minimal inhibitory concentration, E. coli C786” value is 32 µg/mL. Further, the “Minimal inhibitory concentration, E. coli UB1005” value in test [6] was determined as 32 µg/mL. Also, the “Minimal inhibitory concentration, E. coli DC2” value in [7] turned out to be 32 µg/mL. In addition, the “antimicrobial activity, overall (in words)” value (from here on “antimicrobial activity”) in test [8] is “poor or no observed activities”. The “Minimal inhibitory concentration, A. sal 99-1” value in [9] is greater than 64 µg/mL. Also, the “Minimal inhibitory concentration, A. sal 97-4” value in test [10] amounted to 32 µg/mL. In test [11], the “Minimal inhibitory concentration, S. epi C621” value was 32 µg/mL. The “Minimal inhibitory concentration, MRSA C623” value in test [12] was 64 µg/mL. Besides, the “Minimal inhibitory concentration, C. alb C627” value in test [13] is greater than 64 µg/mL.

In the case of GFWGKLFKLGLHGIGLLHLHL-NH2 [NRC-15], in test [1], the “Minimal inhibitory concentration, S. typh MS4252s” value was determined as 4 µg/mL. The “Minimal inhibitory concentration, S. typh 14028s” value in test [2] is 16 µg/mL. In [3], the “Minimal inhibitory concentration, P. aeru K799” value turned out to be 8 µg/mL. Moreover, the “Minimal inhibitory concentration, P. aeru Z61” value in [4] stood at 4 µg/mL. Moreover, in test [5], the “Minimal inhibitory concentration, E. coli C786” value came out at 8 µg/mL. The “Minimal inhibitory concentration, E. coli UB1005” value in test [6] amounted to 8 µg/mL. Further, the “Minimal inhibitory concentration, E. coli DC2” value in test [7] was determined as 8 µg/mL. For the same substance, the “ability to kill methicillin-resistant S. aureus” value in test [14] is reported as “ability to kill”. Also, the “antimicrobial activity” value in test [8] is “broad spectrum of antimicrobial activity”. For the same substance, the “Minimal inhibitory concentration, A. sal 99-1” value in [9] was found to be 8 µg/mL. Also, in [10], the “Minimal inhibitory concentration, A. sal 97-4” value worked out at 16 µg/mL. For the same substance, the “Minimal inhibitory concentration, S. epi C621” value in [11] came to 4 µg/mL. Moreover, in [12], the “concentration inhibiting the growth of methicillin-resistant S. aureus” value amounted to 4 µg/mL and the “Minimal inhibitory concentration, MRSA C623” value came to 4 µg/mL. The “Minimal inhibitory concentration, C. alb C627” value in test [13] came out at 16 µg/mL.

Regarding GWKKWFNRAKKVGKTVGGLAVDHYL-NH2 [NRC-12], the “Minimal inhibitory concentration, S. typh MS4252s” value in test [1] came out at 2 µg/mL. Further, the “Minimal inhibitory concentration, S. typh 14028s” value in test [2] came to 8 µg/mL. In addition, the “Minimal inhibitory concentration, P. aeru K799” value in [3] was 4 µg/mL. The “Minimal inhibitory concentration, P. aeru Z61” value in test [4] was determined as 1 µg/mL. For the same substance, in test [5], the “Minimal inhibitory concentration, E. coli C786” value amounted to 2 µg/mL. In addition, the “Minimal inhibitory concentration, E. coli UB1005” value in test [6] is 8 µg/mL. Moreover, the “Minimal inhibitory concentration, E. coli DC2” value in test [7] was 2 µg/mL. The “ability to kill C. albicans” value in test [15] was “ability to kill”. Also, the “antimicrobial activity” value in [8] was “broad spectrum of antimicrobial activity”. Also, the “Minimal inhibitory concentration, A. sal 99-1” value in test [9] came out at 2 µg/mL. Besides, the “Minimal inhibitory concentration, A. sal 97-4” value in test [10] turned out to be 2 µg/mL. Besides, the “Minimal inhibitory concentration, S. epi C621” value in test [11] stood at 8 µg/mL. Besides, the “Minimal inhibitory concentration, MRSA C623” value in test [12] was determined as 16 µg/mL. Besides, the “Minimal inhibitory concentration, C. alb C627” value in [13] was 4 µg/mL.

On to GWKKWLRKGAKHLGQAAIK-NH2 [NRC-16], for which the “Minimal inhibitory concentration, S. typh MS4252s” value in test [1] amounted to 0.5 µg/mL. In test [2], the “Minimal inhibitory concentration, S. typh 14028s” value worked out at 16 µg/mL. Besides, the “Minimal inhibitory concentration, P. aeru K799” value in test [3] is 4 µg/mL. The “Minimal inhibitory concentration, P. aeru Z61” value in test [4] amounted to 1 µg/mL. In test [5], the “Minimal inhibitory concentration, E. coli C786” value amounted to 1 µg/mL. Moreover, the “Minimal inhibitory concentration, E. coli UB1005” value in [6] came out at 2 µg/mL. Moreover, in test [7], the “Minimal inhibitory concentration, E. coli DC2” value was determined as 0.5 µg/mL. In test [8], the “antimicrobial activity” value is “broad spectrum of antimicrobial activity”. Moreover, the “Minimal inhibitory concentration, A. sal 99-1” value in [9] worked out at 2 µg/mL. Also, the “Minimal inhibitory concentration, A. sal 97-4” value in [10] was found to be 1 µg/mL. Also, the “Minimal inhibitory concentration, S. epi C621” value in test [11] is 16 µg/mL. In addition, in test [12], the “Minimal inhibitory concentration, MRSA C623” value is 32 µg/mL. The “Minimal inhibitory concentration, C. alb C627” value in [13] was found to be 8 µg/mL.

With GWKSVFRKAKKVGKTVGGLALDHYL-NH2 [NRC-11], the “Minimal inhibitory concentration, S. typh MS4252s” value in [1] was determined as 4 µg/mL. In addition, the “Minimal inhibitory concentration, S. typh 14028s” value in test [2] is 32 µg/mL. For the same substance, the “Minimal inhibitory concentration, P. aeru K799” value in test [3] worked out at 32 µg/mL. In addition, the “Minimal inhibitory concentration, P. aeru Z61” value in test [4] worked out at 4 µg/mL. Moreover, in test [5], the “Minimal inhibitory concentration, E. coli C786” value came out at 4 µg/mL. Moreover, in test [6], the “Minimal inhibitory concentration, E. coli UB1005” value stood at 16 µg/mL. Also, the “Minimal inhibitory concentration, E. coli DC2” value in [7] was 4 µg/mL. Further, the “antimicrobial activity” value in test [8] was “broad spectrum of antimicrobial activity”. Moreover, the “Minimal inhibitory concentration, A. sal 99-1” value in test [9] came to 8 µg/mL. The “Minimal inhibitory concentration, A. sal 97-4” value in test [10] stood at 8 µg/mL. For the same substance, in test [11], the “Minimal inhibitory concentration, S. epi C621” value was found to be 64 µg/mL. Besides, the “Minimal inhibitory concentration, MRSA C623” value in [12] is greater than 64 µg/mL. The “Minimal inhibitory concentration, C. alb C627” value in test [13] was 32 µg/mL.

Regarding RSTEDIIKSISGGGFLNAMNA-NH2 [NRC-8], the “Minimal inhibitory concentration, S. typh MS4252s” value in [1] was greater than 64 µg/mL. Moreover, in [2], the “Minimal inhibitory concentration, S. typh 14028s” value was greater than 64 µg/mL. Moreover, the “Minimal inhibitory concentration, P. aeru K799” value in test [3] was greater than 64 µg/mL. In addition, in [4], the “Minimal inhibitory concentration, P. aeru Z61” value was greater than 64 µg/mL. In addition, the “Minimal inhibitory concentration, E. coli C786” value in test [5] is greater than 64 µg/mL. Besides, in [6], the “Minimal inhibitory concentration, E. coli UB1005” value was greater than 64 µg/mL. Also, the “Minimal inhibitory concentration, E. coli DC2” value in test [7] was greater than 64 µg/mL. Also, the “antimicrobial activity” value in test [8] is listed as “poor or no observed activities”. Also, the “Minimal inhibitory concentration, A. sal 99-1” value in test [9] was greater than 64 µg/mL. Further, the “Minimal inhibitory concentration, A. sal 97-4” value in test [10] was greater than 64 µg/mL. Besides, in [11], the “Minimal inhibitory concentration, S. epi C621” value is greater than 64 µg/mL. Besides, the “Minimal inhibitory concentration, MRSA C623” value in test [12] is greater than 64 µg/mL. Moreover, the “Minimal inhibitory concentration, C. alb C627” value in test [13] is greater than 64 µg/mL.

On to WLRRIGKGVKIIGGAALDHL-NH2 [NRC-2], for which the “Minimal inhibitory concentration, S. typh MS4252s” value in test [1] is 64 µg/mL. Further, the “Minimal inhibitory concentration, S. typh 14028s” value in test [2] is greater than 64 µg/mL. For the same substance, the “Minimal inhibitory concentration, P. aeru K799” value in test [3] was 64 µg/mL. Also, the “Minimal inhibitory concentration, P. aeru Z61” value in [4] worked out at 32 µg/mL. In addition, in test [5], the “Minimal inhibitory concentration, E. coli C786” value stood at 64 µg/mL. For the same substance, the “Minimal inhibitory concentration, E. coli UB1005” value in test [6] is 64 µg/mL. Besides, the “Minimal inhibitory concentration, E. coli DC2” value in test [7] was 64 µg/mL. Moreover, the “antimicrobial activity” value in test [8] is reported as “only marginally active”. For the same substance, in [9], the “Minimal inhibitory concentration, A. sal 99-1” value is greater than 128 µg/mL. In [10], the “Minimal inhibitory concentration, A. sal 97-4” value is 128 µg/mL. In addition, the “Minimal inhibitory concentration, S. epi C621” value in test [11] is greater than 64 µg/mL. Besides, the “Minimal inhibitory concentration, MRSA C623” value in test [12] was greater than 64 µg/mL. Further, the “Minimal inhibitory concentration, C. alb C627” value in [13] was greater than 64 µg/mL.
